Source: paper doi:10.1101/2020.02.14.948786v2 (bioRxiv, 2020)

Test system: Ca^2+ spiking in Neurospora crassa conidia expressing GCaMP6s
Test: Ca^2+ spiking in single conidia expressing GCaMP6s
Type: cell-based
Conditions: conidia pre-treated with 5 mM BAPTA before ddH2O or PAF26 treatment

Q: How did the “frequency of Ca^2+ spiking after chelation of external Ca^2+” value turn out when O=C(O)CN(CC(=O)O)c1ccccc1OCCOc1ccccc1N(CC(=O)O)CC(=O)O [BAPTA] was run?
A: 0
